The record followed here is patent US20040248211A1, “ICAM-related protein” (priority 1992, published 2004).

Assay [1] has as its system SKW3 cell binding to ICAM-R. In words: Peptide inhibition of SKW3 cell adhesion to soluble ICAM-R coated plastic. It is filed as cell-based, human. The note with it: peptide at 1-2 mg/ml; PMA; soluble ICAM-R coated wells. The source says: Based on amino acid sequence alignment with known β1 integrin binding domains in fibronectin and based on epitope mapping of anti-ICAM-R monoclonal antibodies that block cell adhesion (see Table 11 in Example 22), ICAM-R peptides corresponding to potential integrin binding sites were synthesized by Macromolecular Resources (Colorado State University, Fort Collins, Colo.). Four ICAM-R sequences which lie between or at the border of predicted beta strands in domains 1 and 3 of were chosen. Similar but not identical β-strand predictions for ICAM-1 are set out in Staunton et al., Cell, 61: 243-254 (1990). Inhibition was assayed using a system involving cell adhesion to soluble ICAM-R coated plastic. Calcein-labeled cells (see Example 7 Section A above) were incubated with peptide at 1-2 mg/ml for 20 minutes at 25° C. and the cells were transferred to wells of a 96-well plate previously coated with soluble ICAM-R (see Example 10) and containing 10 μg/ml final concentration phorbol 12-myristate 13-acetate (PMA). After 50 minutes, the plate was inverted in PBS for 10 minutes to remove unbound cells. Bound cells were quantitated using a fluorescence concentration analyzer.

In another assay the test system is human PBL. In words: Tyrosine phosphorylation in PBL after crosslinking. It is filed as cell-based. The settings on record: soluble antibody 30 ug/ml, goat anti-mouse IgG 100 ug/ml. The procedure:
Human PBL was obtained by Ficoll-Hypaque centrifugation and were incubated for 5 minutes with soluble ICR-4.2, OKT3 or anti-HLA-(1×10^7 cells were incubated with each antibody at 30 ug/ml). The cells were then washed and goat anti-mouse IgG (Cappell) was added to a final concentration of 100 ug/ml. After varying periods of time, the cells were lysed in detergent and lysates were electrophoresed on a 10% acrylamide gel, transferred to blotting paper. Blots were then probed with the anti-phosphotryosine antibody 4G10.

For another assay, the system named is Jurkat T leukemic cells. In words: F-actin and G-actin cell content. In kind it is cell-based, human. The note with it: ICR-1.1 without gam. The procedure:
Cellular shape changes (such as cell spreading) as well as T-cell activation are associated with changes in the cytoskeletal actin network manifested by alteration of the ratio of globular actin (G-actin) to filamentous actin (F-actin). To test whether the engagement by ICAM-R antibodies of ICAM-R expressed on Jurkat T leukemic cells would induce changes in cellular actin ratios, studies measuring F-actin and G-actin cell content were carried out by methods known in the art.

A further assay concerns Jurkat T cells. The assay can be described thus: MIP-1 alpha ELISA, Jurkat on co-immobilized antibodies. In kind it is cell-based, human. The note with it: anti-ICAM-R 10 μg/ml co-immobilized with sub-optimal OKT3; OKT3 = sub-optimal concentration alone. The protocol: In addition to induction in monocytes, the expression of MIP-1 alpha in the Jurkat T leukemic cell line upon treatment with ICR-5.1, ICR-4.2 or ICR-9.2 was also examined. A sub-optimal dose of anti-CD3 antibody OKT3 (500 ng/ml) in PBS-CMF was plated onto flat-bottomed 96-well polystyrene plates and incubated overnight at 4° C. Then, after removing well contents, monoclonal antibody OKT3, ICR-5.1, ICR-4.2, or ICR-9.2 (10 μg/ml in PBS-CMF) was plated overnight at 4° C. Wells were blocked with 1% BSA in PBS-CMF at 37° C. for 1 hour and then rinsed in PBS-CMF. Jurkat T cells were seeded into wells at 2×10^5/well in RPMI/10%FCS+10 μg/ml polymyxin B—SO4. Cells were incubated in wells for 4, 6, or 8 hours or overnight at 37° C. in 5% CO2. Supernatants were harvested by transferring well contents to round-bottomed 96-well polystyrene plates, harvested by centrifuging for 5 minutes at 1200 rpm and by re-transferring to new round-bottomed plates. MIP-1 alpha release into the cell supernatant was assayed by a specific ELISA for MIP-1 alpha.

A further assay concerns HL60 cells. The assay can be described thus: IL-8 release from HL60. In kind it is cell-based, human. The protocol: Monocytes were isolated by elutriation from peripheral blood of normal donors. […] After blocking free sites, the cells were placed into the wells in medium. […] Those cells plated in wells treated with BSA plus or minus LPS were rounded and not spread. After 8 or 18 hours of incubation at 37° C., the medium was removed and assayed for IL-8 immunoreactivity. […] By 18 hours, IL-8 levels in media from ICR monoclonal antibody wells were much elevated over control levels. […] Similar experiments with monocytic cell lines (U937 and HL60) to determine if ICR monoclonal antibody can induce IL-8 release were conducted. U937 cells responded to each of the ICR monoclonal antibody treated wells by releasing IL-8 into the conditioned medium. […] No detectable morphological changes were detected with the U937 or HL60 cells.

In another assay the test system is THP-1 cells. The assay can be described thus: MIP-1 alpha secretion by THP-1 on immobilized soluble LFA-1. The settings on record: background approximately 100 pg/ml. In kind it is cell-based, human. The protocol:
A soluble version of LFA-1, when immobilized onto plastic wells, induced THP-1 cells to secrete approximately […] MIP-1 alpha, whereas background levels were approximately 100 pg/ml.

In the case of “ICAM-1 70-74: ICAM-1 domain 1 peptide (DGQST, SEQ ID NO: 25)”, the “% Inhibition CD18-Dependent Binding (SKW3)” value in assay [1] was “did not inhibit binding”. For the substance “OKT3: anti-CD3 antibody [reference compound]”, the “tyrosine phosphorylation after crosslinking” value in the assay on human PBL is “Phosphorylation of substrates were also observed”. Further, in the assay on Jurkat T leukemic cells (OKT3 plus gam), the “time to peak F-actin content” value is no more than 10 min. For the same substance, in the assay on Jurkat T leukemic cells (OKT3 plus goat anti-mouse crosslinker (gam)), the F-actin content result was “rapid, transient increase in F-actin content”. For the same substance, in the assay on Jurkat T cells, the “MIP-1 alpha expression relative to BSA background” value is “three-fold”. In the case of lipopolysaccharide [LPS], in the assay on HL60 cells, the IL-8 release entry is “did induce a marked release”.

For the substance “soluble version of LFA-1: soluble version of LFA-1 immobilized onto plastic wells”, the MIP-1 alpha secreted entry in the assay on THP-1 cells is reported as “approximately 1000 μg/ml”.
